In brackets after ≈: the same amount, converted by molar mass.
Legend:
Type in all cases: cell-based
[1] = tested on: Acinetobacter baumannii SR24396; test: Minimum Inhibitory Concentration (MIC), agar plate incubation, Japan Society for Chemotherapy standard method; details: Acinetobacter baumannii SR24396, no enzyme, 1000 cfu/spot, sensitive disc medium; for MIC: read-out: Minimum Inhibitory Concentration (MIC)
Procedure: (§1) The antimicrobial activity in vitro of the present compound (I) was determined.
(§2) Measurement of Minimum Inhibitory Concentration (MIC, μg/ml) was conducted according to the standard method of the Japan Society for Chemotherapy and the amount of bacteria for inoculation was 1000 cfu/spot, and sensitive disc medium was used as the test medium, and conducted using agar plate incubation.
(§3) In the tables, the unit of the values of inhibitory activity is μg/ml.

[2] = tested on: Klebsiella pneumoniae ATCC 700603; test: as above; details: Klebsiella pneumoniae ATCC 700603, SHV-18, ESBL producer strain, 1000 cfu/spot, sensitive disc medium; for MIC: ATCC700603, read-out: Minimum Inhibitory Concentration (MIC)
Procedure: as §1, §2, §3

[3] = tested on: Pseudomonas aeruginosa SR27060; test: as above; details: Pseudomonas aeruginosa SR27060, IMP-1, MBL producer strain (carbapenem resistant strain), 1000 cfu/spot, sensitive disc medium; for MIC: read-out: Minimum Inhibitory Concentration (MIC)
Procedure: as §1, §2, §3

[4] = tested on: Pseudomonas aeruginosa SR24; test: as above; details: Pseudomonas aeruginosa SR24, no enzyme, ceftazidime sensitive strain, 1000 cfu/spot, sensitive disc medium; for MIC: read-out: Minimum Inhibitory Concentration (MIC)
Procedure: as §1, §2, §3

[5] = tested on: Stenotrophomonas maltophilia SR21970; test: Minimum Inhibitory Concentration (MIC), agar plate incubation, CLSI method; details: Stenotrophomonas maltophilia SR21970, L-1, MBL producer strain (carbapenem resistant strain), 10000 cfu/spot, Mueller-Hinton agar medium; for MIC: read-out: Minimum Inhibitory Concentration (MIC)
Procedure: as §1
Measurement of Minimum Inhibitory Concentration (MIC, μg/ml) was conducted according to the CLSI (Clinical and Laboratory Standards Institute) and the amount of bacteria for inoculation was 10000 cfu/spot, and Mueller-Hinton agar medium was used as the test medium, and conducted using agar plate incubation.
as §3

| Compound | Minimum Inhibitory Concentration (MIC) [1] [µg/mL] | Minimum Inhibitory Concentration (MIC) [2] [µg/mL] | Minimum Inhibitory Concentration (MIC) [3] [µg/mL] | Minimum Inhibitory Concentration (MIC) [4] [µg/mL] | Minimum Inhibitory Concentration (MIC) [5] [µg/mL] | MIC [1] [µg/mL] | MIC [2] [µg/mL] | MIC [3] [µg/mL] | MIC [4] [µg/mL] | MIC [5] [µg/mL] |
| --- | --- | --- | --- | --- | --- | --- | --- | --- | --- | --- |
| Nc1nc(/C(=N/O[C@@H](CC(=O)[O-])C(=O)[O-])C(=O)N[C@@H]2C(=O)N3C(C(=O)[O-])=C(C[N+]4(CCNC(=O)c5ccc(O)c(O)c5Cl)CCCC4)CS[C@H]23)cs1.[Na+].[Na+] [Compound I-59] | 0.125 | 0.25 | 0.25 | 0.063 | 0.5 |  |  |  |  |  |
| CC(C)(O/N=C(\C(=O)N[C@@H]1C(=O)N2C(C(=O)[O-])=C(C[N+]3(C)[C@@H]4CC[C@H]3C[C@@H](NC(=O)c3ccc(O)c(O)c3Cl)C4)CS[C@H]12)c1csc(N)n1)C(=O)O (stereo partly drawn) [II-2] |  |  |  |  |  | 0.25 (≈ 0.321 µM) | 0.5 (≈ 0.642 µM) | 1 (≈ 1.28 µM) | 0.125 (≈ 0.161 µM) | 2 (≈ 2.57 µM) |
| C[N+]1(CC2=C(C(=O)[O-])N3C(=O)[C@@H](NC(=O)/C(=N\O[C@@H](CC(=O)O)C(=O)O)c4csc(N)n4)[C@H]3SC2)[C@@H]2CC[C@H]1C[C@@H](NC(=O)c1ccc(O)c(O)c1Cl)C2 (stereo partly drawn) [II-3] |  |  |  |  |  | 0.125 (≈ 0.155 µM) | 0.5 (≈ 0.619 µM) | 0.5 (≈ 0.619 µM) | 0.125 (≈ 0.155 µM) | 0.5 (≈ 0.619 µM) |
| C[N+]1(CC2=C(C(=O)[O-])N3C(=O)[C@@H](NC(=O)/C(=N\O[C@@H](CC(=O)[O-])C(=O)[O-])c4nc(N)sc4Cl)[C@H]3SC2)[C@@H]2CC[C@H]1C[C@@H](NC(=O)c1ccc(O)c(O)c1Cl)C2.[Na+].[Na+] (stereo partly drawn) [II-5] | 0.125 | 0.5 | 0.25 | 0.125 | 4 |  |  |  |  |  |
| C[N+]1(CC2=C(C(=O)[O-])N3C(=O)[C@@H](NC(=O)/C(=N\O[C@@H](CC(=O)O)C(=O)O)c4csc(N)n4)[C@H]3SC2)[C@@H]2CC[C@H]1C[C@H](NC(=O)c1ccc(O)c(O)c1Cl)C2 (stereo partly drawn) [II-9] |  |  |  |  |  | 0.063 (≈ 0.0779 µM) | 1 (≈ 1.24 µM) | 0.5 (≈ 0.619 µM) | 0.25 (≈ 0.309 µM) | 0.25 (≈ 0.309 µM) |
| CC(C)(O/N=C(\C(=O)N[C@@H]1C(=O)N2C(C(=O)[O-])=C(C[N+]3(CCNC(=O)c4cc(O)c(O)c(F)c4)CCCC3)CS[C@H]12)c1csc(N)n1)C(=O)[O-].[Na+] [II-15] | 0.125 | 0.125 | 0.25 | 0.063 | 0.5 |  |  |  |  |  |
| CC(C)(O/N=C(\C(=O)N[C@@H]1C(=O)N2C(C(=O)O)=C(C[N+]3(C)[C@@H]4CC[C@H]3C[C@@H](NC(=O)c3ccc(O)c(O)c3F)C4)CS[C@H]12)c1csc(N)n1)C(=O)[O-] (stereo partly drawn) [II-36] |  |  |  |  |  | 0.25 (≈ 0.328 µM) | 0.5 (≈ 0.656 µM) | 0.5 (≈ 0.656 µM) | 0.25 (≈ 0.328 µM) | 1 (≈ 1.31 µM) |
| C[N+]1(CC2=C(C(=O)[O-])N3C(=O)[C@@H](NC(=O)/C(=N\O[C@@H](CC(=O)[O-])C(=O)[O-])c4csc(N)n4)[C@H]3SC2)[C@@H]2CC[C@H]1C[C@@H](NC(=O)c1ccc(O)c(O)c1F)C2.[Na+].[Na+] (stereo partly drawn) [II-37] | 0.25 | 0.5 | 0.25 | 0.25 | 0.5 |  |  |  |  |  |
| CC(C)(O/N=C(\C(=O)N[C@@H]1C(=O)N2C(C(=O)O)=C(C[N+]3(C)[C@@H]4CC[C@H]3C[C@@H](NC(=O)c3cc(O)c(O)c(F)c3)C4)CS[C@H]12)c1csc(N)n1)C(=O)[O-] (stereo partly drawn) [II-47] |  |  |  |  |  | 0.25 (≈ 0.328 µM) | 0.25 (≈ 0.328 µM) | 0.25 (≈ 0.328 µM) | 0.063 (≈ 0.0827 µM) | 0.5 (≈ 0.656 µM) |
| C[N+]1(CC2=C(C(=O)[O-])N3C(=O)[C@@H](NC(=O)/C(=N\O[C@@H](CC(=O)[O-])C(=O)[O-])c4csc(N)n4)[C@H]3SC2)[C@@H]2CC[C@H]1C[C@@H](NC(=O)c1cc(O)c(O)c(F)c1)C2.[Na+].[Na+] (stereo partly drawn) [II-48] | 0.125 | 0.25 | 0.25 | 0.063 | 0.5 |  |  |  |  |  |
| CC(C)(O/N=C(\C(=O)N[C@@H]1C(=O)N2C(C(=O)O)=C(C[N+]3(CCNC(=O)c4cc(O)c(O)c(Cl)c4)CCCC3)CS[C@H]12)c1csc(N)n1)C(=O)[O-] [II-49] |  |  |  |  |  | 0.125 (≈ 0.166 µM) | 0.125 (≈ 0.166 µM) | 0.5 (≈ 0.665 µM) | 0.125 (≈ 0.166 µM) | 0.5 (≈ 0.665 µM) |

The next lines start with the values.

| Minimum Inhibitory Concentration (MIC) [1] [µg/mL] | Minimum Inhibitory Concentration (MIC) [2] [µg/mL] | Minimum Inhibitory Concentration (MIC) [3] [µg/mL] | Minimum Inhibitory Concentration (MIC) [4] [µg/mL] | Minimum Inhibitory Concentration (MIC) [5] [µg/mL] | MIC [1] [µg/mL] | MIC [2] [µg/mL] | MIC [3] [µg/mL] | MIC [4] [µg/mL] | MIC [5] [µg/mL] | Compound |
| --- | --- | --- | --- | --- | --- | --- | --- | --- | --- | --- |
| 0.25 | 0.25 | 1 | 0.063 | 1 |  |  |  |  |  | CC(C)(O/N=C(\C(=O)N[C@@H]1C(=O)N2C(C(=O)[O-])=C(C[N+]3(C)CCC4(CCN(C(=O)c5ccc(O)c(O)c5Cl)CC4)CC3)CS[C@H]12)c1csc(N)n1)C(=O)[O-].[Na+] [Compound I-42] |
| 0.125 | 0.25 | 0.5 | 0.063 | 1 |  |  |  |  |  | Nc1nc(/C(=N/O[C@H](C(=O)[O-])c2ccccc2)C(=O)N[C@@H]2C(=O)N3C(C(=O)[O-])=C(C[N+]4(CCNC(=O)c5ccc(O)c(O)c5Cl)CCCC4)CS[C@H]23)ns1.[Na+] [Compound I-51] |
|  |  |  |  |  | 0.125 (≈ 0.154 µM) | 0.5 (≈ 0.615 µM) | 2 (≈ 2.46 µM) | 0.125 (≈ 0.154 µM) | 1 (≈ 1.23 µM) | Nc1nc(/C(=N/O[C@H](C(=O)[O-])c2ccccc2)C(=O)N[C@@H]2C(=O)N3C(C(=O)O)=C(C[N+]45CCC[C@H]4CN(C(=O)c4ccc(O)c(O)c4Cl)CC5)CS[C@H]23)ns1 (stereo partly drawn) [Compound I-52] |
|  |  |  |  |  | 0.25 (≈ 0.333 µM) | 1 (≈ 1.33 µM) | 0.5 (≈ 0.666 µM) | 0.063 (≈ 0.084 µM) | 0.5 (≈ 0.666 µM) | C[C@@H](O/N=C(\C(=O)N[C@@H]1C(=O)N2C(C(=O)O)=C(C[N+]34CCC[C@H]3CN(C(=O)c3ccc(O)c(O)c3Cl)CC4)CS[C@H]12)c1csc(N)n1)C(=O)[O-] (stereo partly drawn) [Compound I-63] |
|  |  |  |  |  | 0.063 (≈ 0.0828 µM) | 0.25 (≈ 0.328 µM) | 0.5 (≈ 0.657 µM) | 0.125 (≈ 0.164 µM) | 2 (≈ 2.63 µM) | N#CC[C@H](O/N=C(\C(=O)N[C@@H]1C(=O)N2C(C(=O)O)=C(C[N@@+]34CC[C@@H](C3)N(C(=O)c3ccc(O)c(O)c3Cl)CC4)CS[C@H]12)c1csc(N)n1)C(=O)[O-] [II-1] |
| 0.125 | 0.5 | 0.5 | 0.25 | 0.5 |  |  |  |  |  | C[N+]1(CC2=C(C(=O)[O-])N3C(=O)C(NC(=O)C(=NOC(CC(=O)[O-])C(=O)[O-])c4csc(N)n4)C3SC2)C2CCC1CN(C(=O)c1ccc(O)c(O)c1Cl)C2.[Na+].[Na+] (stereo not drawn) [II-7] |
| 0.125 | 0.25 | 0.5 | 0.125 | 0.5 |  |  |  |  |  | Nc1nc(C(=NOC(CC(=O)[O-])C(=O)[O-])C(=O)NC2C(=O)N3C(C(=O)[O-])=C(C[N+]45CCCC4CN(C(=O)c4cc(O)c(O)c(F)c4)CC5)CSC23)cs1.[Na+].[Na+] (stereo not drawn) [II-16] |
|  |  |  |  |  | 0.063 (≈ 0.0856 µM) | 0.5 (≈ 0.679 µM) | 1 (≈ 1.36 µM) | 0.125 (≈ 0.17 µM) | 1 (≈ 1.36 µM) | C[C@@H](O/N=C(\C(=O)N[C@@H]1C(=O)N2C(C(=O)O)=C(C[N@@+]34CC[C@@H](C3)N(C(=O)c3ccc(O)c(O)c3Cl)CC4)CS[C@H]12)c1csc(N)n1)C(=O)[O-] [II-25] |
| 0.125 | 0.25 | 1 | 0.125 | 0.5 |  |  |  |  |  | Nc1nc(C(=NOC(CC(=O)[O-])C(=O)[O-])C(=O)NC2C(=O)N3C(C(=O)[O-])=C(C[N+]45CCCC4CN(C(=O)c4ccc(O)c(O)c4F)CC5)CSC23)cs1.[Na+].[Na+] (stereo not drawn) [II-28] |
|  |  |  |  |  | 0.25 (≈ 0.34 µM) | 0.125 (≈ 0.17 µM) | 0.5 (≈ 0.68 µM) | 0.125 (≈ 0.17 µM) | 0.5 (≈ 0.68 µM) | CC(C)(O/N=C(\C(=O)N[C@@H]1C(=O)N2C(C(=O)O)=C(C[N+]3(CCNC(=O)c4ccc(O)c(O)c4F)CCCC3)CS[C@H]12)c1csc(N)n1)C(=O)[O-] [II-29] |

— patent US9145425B2, “Cephem compound having catechol group” (SHIONOGI & CO., LTD., priority 2010, dated 2015)
